The assay deals with C57/BL6 WT mice subjected to TAC pressure overload. The assay can be described thus: Transthoracic echocardiography in conscious TAC mice. The note with it: WT mice, TAC 3 weeks, oral co-treatment 1 mg/g food; mean ± sem. It counts as in vivo, mouse. An excerpt: Male NOS3 null mice (NOS3^−/−) and C57/BL6 WT controls (8-11 weeks, Jackson Labs, Bar Harbor, Me., USA) were used. Pressure overload was produced by transverse aorta constriction (TAC). Briefly, The aortic arch was isolated by entering the extrapleural space between the second and third rib, and afterwards the transverse aorta was isolated between the right and left carotid arteries. A 7-0 prolene suture ligature was tied around the transverse aorta against a 27-gauge needle to produce a 65-70% constriction after the removal of the needle. After closing the chest, animals were extubated, and a subcutaneous injection of morphine sulphate 0.2 mg, was administered before they returned to their cages. Animal's ventilatory and circulatory status was checked every 30 minutes during the first 2 hours. Sham-operated mice underwent the same operation except for aortic constriction. […] Animals were randomized to receive placebo or BH4 (120 mg/kg/d) for the next 5 weeks. At the end of the study, i.e. at 9 weeks, animal were sacrificed to receive tissue or underwent in vivo PV-loop analysis. […] Control mice were subject to sham operations, and animals were studied 3-9 weeks following surgery. An additional group of wild-type animals were subjected to TAC for 3 weeks while co-treated with oral tetrahydrobiopterin (BH4) (Sigma-Aldrich) (1 mg/g food) mixed in their rodent chow, providing 5 mg/day based on 4-6 g daily diet^8.
Two different BH4 treatment protocols are used. For experiments related to FIGS. 1-7, where prevention of cardiac indications is described BH4 is provided orally as a treatment starting 2 days after TAC surgery (once mice are again eating oral diet). For those figures related to treatment of established cardiac indications, FIGS. 8-23, BH4 is provided orally but this is delayed for 4 weeks to establish substantial cardiac hypertrophy, remodeling, and NOS-uncoupling. Then the treatment is provided for the remaining 5 week period.
For folate studies, C57/BL6 WT were treated with folate (10 mg/kg/day) or with placebo for a 9 week period during which time the hearts were exposed to TAC.
In vivo cardiac morphology was assessed by transthoracic echocardiography (Acuson Sequoia C256, 13 MHz transducer, Siemens) in conscious mice. M-mode left ventricular (LV) end-systolic and end-diastolic dimensions were averaged from 3-5 beats. Left ventricular ejection fraction (LVEF) and percent fractional shortening (% FS) were calculated as: LVEF=[(LVEDD)^3-(LVESD)^3]/(LVEDD)^3×100; % FS=(LVEDD−LVESD)/LVEDD×100. Wall thickness of lateral freewall and intraventricular septum were averaged. Studies and analysis were performed blinded to heart condition.

Here are results for one compound from patent publication US20100004248A1, “Use of a Nitric Oxide Synthase Modulator for the Treatment of Cardiac Indications” (priority 2005, published 2010).

Regarding `Nc1nc2c(c(=O)[nH]1)NC(C(O)C(O)CO)CN2` (stereo not shown) [H4N, tetrahydroneopterin], the “Fractional Shortening” value is 33.8 ± 5.3%, the “LV diameter Diastole” value is reported as 3.94 ± 0.19 mm, the “LV diameter Systole” value stood at 2.70 ± 0.31 mm and the Wall thickness is 0.98 ± 0.03 mm.
